Laboratory results as given in publication PMC9021288 (Nature Communications, 2022).
Several values for one entry are separate records, joined by “and”; a condition that tells them apart may be missing. Equal entries are not always repeated. Where two headings read alike, the source gives them in different places.

How the values were obtained:
[1] = Blood concentration and PK in infected NSG mice after single oral dose; assay type: in vivo, mouse
Experimental: The effect of pantothenamides on P. falciparum Pf3D7^0087/N9 [66] in vivo was assessed in female NSG mice (NODscidIL2Rγ^null) at the Swiss Tropical and Public Health Institute (Basel, Switzerland) as described previously (Supplementary Table 30)[15],[67]. Briefly, humanized mice were engrafted daily with human erythrocyte suspensions from days -11 to day 6. After 11 days (day 0), mice were injected intravenously with 3×10^7 infected RBCs in a volume of 0.1 ml. On day 4, groups of n = 2 mice were treated with a single dose pantothenamides or chloroquine (50 mg/kg) by oral gavage. The hematocrit of all dosed mice and an untreated control group (n = 4 mice) was determined by fluorescence-activated cell sorting and parasitemia was analyzed by microscopy on >10,000 RBCs as described before. Samples to quantify compound metabolites were collected and prepared at different time points (1, 2, 4, 6, and 24 h after treatment) for each mouse by mixing 20 µl of whole blood with 20 µl of Milli-Q, followed by immediate freezing of samples on dry ice. […] Serial dilutions were prepared in the same solvent to concentrations 50 times higher than the corresponding CAL and QC concentrations. The concentrations were calculated under consideration of purity and salt factor. The spiking of the CAL and QC sample were performed at room temperature. The eight calibration levels were 5.00, 10.0, 50.0, 100, 500, 1000, 3750, and 5000 ng/mL and three QC levels 15.0, 100, and 3750 ng/mL were analyzed in duplicate, together with the study samples.
For the sample precipitation, to an aliquot of 10 µL mouse blood/water (1/1) study sample, 20 µL of acetonitrile containing the internal standard MMV1542001 at a concentration of 100 ng/mL was added. After vortex mixing, the samples were centrifuged for 10 min at 50,000 g at 8 °C. Subsequently, an aliquot of 20 µL of the supernatant was transferred to an autosampler vial and an aliquot of 5 µL was injected onto the LC-MS/MS system.
The samples were handled by an autosampler CTC PAL (CTC Analytics AG, Zwingen, Switzerland) set at 8 °C. The chromatography column used was a YMC Hydrosphere C18, 2.1 × 33 mm, 3 µm (YMC Co. Ltd., Kyoto, Japan), kept at room temperature. The aqueous mobile phase consisted of water containing 0.1 % formic acid, whereas the organic mobile phase consisted of acetonitrile containing 0.1 % formic acid, pumped by HPLC pump from Agilent 1200 series (Agilent Technologies Inc, Santa Clara, CA, USA). The HPLC gradient was as follows: 95% phase A, 5% phase B for 0.20 min, followed by transition to 5% phase A, 95% phase B in 1 min, 2 min at these concentrations, and a subsequent increase to 95% phase A, 5% phase B in 0.05 min which is kept for the remaining 0.75 min.
The detection of MMV693183 was performed using a TSQ Access mass spectrometer (Thermo Fisher Scientific, San Jose, CA, USA) by selected reaction monitoring. The ion source was heated electrospray ionization, using a negative polarity. Following parameters were used: Voltage 2500 [V], Vaporizer temperature 350 [°C], Sheath gas 60 [au], Auxiliary gas 5 [au], Capillary temperature 350 [°C] and Collision gas pressure 1.0 [mTorr]. […] The transition used for the internal standard was: parent ion 325.030 m/z—daughter ion 195.000 m/z.
The concentration of the analyte was calculated using the internal standardization method. The area ratio of analyte to internal standard against the concentration of calibration samples was used for quantification. The acquisition and processing of data were performed using LCquan 2.5.6 and Xcalibur 2.0.7. Microsoft Office Excel 2007 Prof was used for calculations and statistical evaluation of data. […] The Lower Limit of Quantification was 5.00 ng/mL in […], whereas The Upper Limit of Quantification was 5000 ng/mL in mouse blood/water (1/1).

Crystal screening (XRPD) = assay type: physicochemical; settings: 36 conditions
Experimental: Crystal screening for each further characterized pantothenamide was performed by a commercial service (Crystal Pharmatech Co., Ltd.) under 36 conditions using a variety of crystallization methods, including liquid vapor diffusion, slow evaporation, slurry conversion and salt/co-crystal formation and solvents. X-ray power diffraction (XRPD) patterns were collected by Bruker X-ray powder diffractometers.

[2] = tested on: P. falciparum Pf3D7^0087/N9; assay: Single dose in vivo efficacy in humanized NSG mice; set-up: species or system Plasmodium falciparum; settings: for parasitemia outcome: single 50 mg/kg oral gavage on day 4, over three days
Experimental: The effect of pantothenamides on P. falciparum Pf3D7^0087/N9 [66] in vivo was assessed in female NSG mice (NODscidIL2Rγ^null) at the Swiss Tropical and Public Health Institute (Basel, Switzerland) as described previously (Supplementary Table 30)[15],[67]. Briefly, humanized mice were engrafted daily with human erythrocyte suspensions from days -11 to day 6. […] On day 4, groups of n = 2 mice were treated with a single dose pantothenamides or chloroquine (50 mg/kg) by oral gavage. […] Serial dilutions were prepared in the same solvent to concentrations 50 times higher than the corresponding CAL and QC concentrations. The concentrations were calculated under consideration of purity and salt factor. The spiking of the CAL and QC sample were performed at room temperature.

[3] = tested on: cryopreserved human primary hepatocytes; assay: in vitro; settings: human, hepatocytes
Description: Briefly, cryopreserved human primary hepatocytes were thawed and cultured as described above.

[4] = day 5 post infection, 50 mg/kg p.o. on day 4, per mouse, 50 mg/kg
[5] = day 6 post infection, per mouse
[6] = day 7 post infection, per mouse

Compound: C[C@@H](CNC(=O)[C@H](O)C(C)(C)CO)NC(=O)c1cc(C#N)ccc1F [MMV693182]
- concentration in blood ([1]; 1 h post treatment, per mouse): 4180 ng/mL
- concentration in blood ([1]; 2 h post treatment, per mouse): 2200 ng/mL and 1000 ng/mL
- concentration in blood ([1]; 4 h post treatment, per mouse): 866 ng/mL
- concentration in blood ([1]; 6 h post treatment, per mouse): 266 ng/mL and 912 ng/mL
- concentration in blood ([1]; 24 h post treatment, per mouse): 10 ng/mL and 22.4 ng/mL
- concentration at 1 h ([1]; female, NSG (NODscidIL2Rγnull), mouse, whole blood, oral, 50 mg/kg, 1 h post treatment, per mouse): 6360 ng/mL
- concentration at 4 h ([1]; female, NSG (NODscidIL2Rγnull), mouse, whole blood, oral, 50 mg/kg, 4 h post treatment, per mouse): 552 ng/mL
- half-life ([1]; female, NSG (NODscidIL2Rγnull), mouse, whole blood, po, 50 mg/kg p.o.): 3.19 h
- AUC(0 - t) ([1]; female, NSG (NODscidIL2Rγnull), mouse, whole blood, po, 50 mg/kg p.o., read-out: AUC0-24h): 15100 ng·h/mL
- Cmax ([1]; female, NSG (NODscidIL2Rγnull), mouse, whole blood, po, 50 mg/kg p.o., read-out: Cmax): 5270 ng/mL
- Tmax ([1]; female, NSG (NODscidIL2Rγnull), mouse, whole blood, po, 50 mg/kg p.o., read-out: Tmax): 1 h
- Crystalline (Crystal screening (XRPD)): Yes
- Parasitemia [2, 4]: 0.28 and 0.38
- Parasitemia [2, 5]: 0.03 and 0.05
- Parasitemia [2, 6]: 0.02
- parasitemia outcome [2]: not fully cleared

Compound: CC(CNC(=O)C(O)C(C)(C)CO)NC(=O)CCc1ccccc1F (stereo in doubt) [MMV689258]
- Human hepatocyte CLint [3]: 0.8 µl/min/10^6 cells
- AUC0-24h ([1]; 50 mg/kg p.o.): 6730 ng·h/mL
- Cmax ([1]; 50 mg/kg p.o.): 3780 ng/mL
- T1/2 ([1]; 50 mg/kg p.o.): 3.26 h
- Tmax ([1]; 50 mg/kg p.o.): 1.00 h
- concentration in blood ([1]; 1 h post treatment, per mouse): 3100 ng/mL and 4460 ng/mL
- concentration in blood ([1]; 2 h post treatment, per mouse): 1090 ng/mL and 698 ng/mL
- concentration in blood ([1]; 4 h post treatment, per mouse): 368 ng/mL and 236 ng/mL
- concentration in blood ([1]; 6 h post treatment, per mouse): 91.8 ng/mL and 110 ng/mL
- concentration in blood ([1]; 24 h post treatment, per mouse): 10 ng/mL
- Crystalline (Crystal screening (XRPD)): Yes
- Parasitemia [2, 4]: 0.26 and 0.2
- Parasitemia [2, 5]: 0.15 and 0.1
- Parasitemia [2, 6]: 0.22 and 0.12
- parasitemia outcome [2]: not fully cleared
